Assay results taken from patent US20070270418A1, “Inhibitors of P38 and Methods of Using the Same” (priority 2003, published 2007).

What was measured:
Assay type in all cases: biochemical
p38α = biological target: T1, p38α (Homo sapiens, UniProt Q16539); test: p38 MAP Kinase assay, ATF2 phosphorylation (ELISA); settings: 40 μM ATP
T1 construct: p38 MAP Kinases are recombinant human full-length proteins with an amino-terminal GST fusion; GST (N); purchased Upstate (Charlottesville, Va.); host or cells: E. coli
T1 sequence (Q16539 whole entry, the tested form may be a part): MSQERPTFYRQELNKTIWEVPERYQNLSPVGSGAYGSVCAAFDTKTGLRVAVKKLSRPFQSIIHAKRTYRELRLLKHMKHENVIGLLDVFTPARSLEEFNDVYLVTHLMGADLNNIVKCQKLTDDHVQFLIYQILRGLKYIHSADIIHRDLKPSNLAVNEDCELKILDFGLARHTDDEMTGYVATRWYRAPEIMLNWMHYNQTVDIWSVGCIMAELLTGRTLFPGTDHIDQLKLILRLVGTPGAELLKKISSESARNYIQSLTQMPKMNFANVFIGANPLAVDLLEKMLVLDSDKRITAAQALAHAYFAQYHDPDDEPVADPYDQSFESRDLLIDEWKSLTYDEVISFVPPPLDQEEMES
In short: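 ATF2 Thr69 phosphorylation was quantified by ELISA (HRP/TMB, 450 nm) after EDTA termination. Reactions: 6 ng GST-fused full-length human p38α, 15 min compound pre-incubation at room temperature, then 30 min at 37° C with 40 μM ATP and 1.25 μM GST-ATF2 (aa 19-96), pH 7.5 HEPES buffer.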

JNK2α2 = biological target: T2, JNK2α2 (Homo sapiens, UniProt P45984); test: Kinase selectivity, ATF2 phosphorylation ELISA
T2 construct: purchased Upstate (Charlottesville, Va.)
T2 sequence (P45984 whole entry): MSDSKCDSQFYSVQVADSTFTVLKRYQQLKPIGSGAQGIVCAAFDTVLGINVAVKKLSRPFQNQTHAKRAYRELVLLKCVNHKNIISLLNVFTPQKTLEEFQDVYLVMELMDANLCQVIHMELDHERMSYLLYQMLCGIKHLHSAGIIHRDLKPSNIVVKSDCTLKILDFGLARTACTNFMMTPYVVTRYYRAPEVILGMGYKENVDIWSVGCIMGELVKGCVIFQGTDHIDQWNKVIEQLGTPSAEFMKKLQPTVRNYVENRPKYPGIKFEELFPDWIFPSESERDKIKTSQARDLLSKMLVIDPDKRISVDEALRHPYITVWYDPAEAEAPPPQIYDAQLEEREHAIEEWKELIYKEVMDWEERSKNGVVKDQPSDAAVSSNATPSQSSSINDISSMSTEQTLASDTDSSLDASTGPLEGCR
Protocol: (§1) All kinases and the substrate ATF2 are acquired from Upstate (Charlottesville, Va.). p38 MAP Kinases are recombinant human full-length proteins with an amino-terminal GST fusion, expressed in and purified from E. coli. ATF2 is a GST fusion protein containing amino acids 19-96 of human ATF2 expressed in E. coli. All proteins were aliquoted and stored at −80° C.
(§2) p38 MAP Kinase assays are performed using an assay buffer containing 25 mM HEPES, pH 7.5, 10 mM MgCl2, 2 mM DTT, 20 mM β-glycerophosphate, 0.1 mM Na3VO4, 40 μM ATP and 1.25 μM of ATF2, together with 6 ng of p38α protein, 12 ng p38β protein, 1.5 ng p38γ, or 0.4 ng JNK2α2. Compounds are serially diluted in DMSO and 2 μL of test compound at 25× final concentration is used. The vehicle control receives DMSO only. Test compounds are pre-incubated with 20 μl of enzyme in kinase buffer (25 mM HEPES, pH 7.5, 10 mM MgCl2, 2 mM DTT, 20 mM 3-glycerophosphate and 0.1 mM Na3VO4) at room temperature for 15 minutes. […] The reactions are incubated for 30 minutes at 37° C. and terminated by the addition of 18 μl of 200 mM EDTA. An ELISA method is used to measure the phosphorylation of ATF2 at Thr 69. High binding 96-well plates (Corning 3369) are coated with 50 μl of kinase reaction for 1 hour at 37° C. The coated plates are washed with 200 μl washing buffer (25 mM Tris HCl, pH 8.3, 192 mM glycine, 0.1% SDS and 0.05% Tween-20) three times. The plates are then washed three times with SuperBlock in TBS (Pierce, 37535). After blocking, plates are incubated with 50 μl of rabbit anti-phospho-ATF2 antibody (Cell Signaling, 9221 L, 1:500) for 30 minutes at 37° C. Plates are washed three times with washing buffer prior to incubation with 50 μl HRP-conjugated goat anti-rabbit antibody (Cell Signaling, 7074, 1:500) for 30 minutes at 37° C. Plates are then washed three times with washing buffer before incubation with 50 μl of Ultra TMB-ELISA (Pierce, 34028) for 8 minutes at room temperature. Finally, 50 μl of phosphoric acid (1 M) is added to stop reactions and plate absorbance is read at 450 nm on a SpectraMax 250 plate reader.
(§3) A selectivity panel is used to test the cross-reactivity of compounds of the invention with the β and γ isoforms of p38 MAP kinase, Src^p60 and JNK2α2. The p38β, p38γ, and JNK2α2 assays are described in Example 4. The Src^p60 assay measures the ability of compounds to inhibit Src^p60-catalyzed phosphorylation of a peptide substrate.

p38γ = biological target: T3, p38γ (Homo sapiens, UniProt P53778); test: Kinase selectivity, ATF2 phosphorylation ELISA
T3 construct: p38 MAP Kinases are recombinant human full-length proteins with an amino-terminal GST fusion; GST (N); purchased Upstate (Charlottesville, Va.); host or cells: E. coli
T3 sequence (P53778 1-367): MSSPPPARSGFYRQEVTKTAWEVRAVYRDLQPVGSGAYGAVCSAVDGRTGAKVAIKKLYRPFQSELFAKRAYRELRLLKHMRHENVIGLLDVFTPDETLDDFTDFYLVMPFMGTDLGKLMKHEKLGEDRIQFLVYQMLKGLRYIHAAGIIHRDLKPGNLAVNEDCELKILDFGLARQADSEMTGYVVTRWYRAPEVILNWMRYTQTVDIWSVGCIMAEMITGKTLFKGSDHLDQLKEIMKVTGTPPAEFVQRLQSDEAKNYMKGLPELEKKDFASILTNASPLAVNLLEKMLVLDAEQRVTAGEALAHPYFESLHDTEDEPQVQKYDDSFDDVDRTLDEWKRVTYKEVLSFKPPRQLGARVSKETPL
Protocol: as §1, §2, §3

Src^p60 = biological target: T4, Src^p60 (Homo sapiens, UniProt P12931); test: Src^p60 peptide phosphorylation, time resolved fluorescence
T4 construct: purchased Upstate (Charlottesville, Va.)
T4 sequence (P12931 whole entry): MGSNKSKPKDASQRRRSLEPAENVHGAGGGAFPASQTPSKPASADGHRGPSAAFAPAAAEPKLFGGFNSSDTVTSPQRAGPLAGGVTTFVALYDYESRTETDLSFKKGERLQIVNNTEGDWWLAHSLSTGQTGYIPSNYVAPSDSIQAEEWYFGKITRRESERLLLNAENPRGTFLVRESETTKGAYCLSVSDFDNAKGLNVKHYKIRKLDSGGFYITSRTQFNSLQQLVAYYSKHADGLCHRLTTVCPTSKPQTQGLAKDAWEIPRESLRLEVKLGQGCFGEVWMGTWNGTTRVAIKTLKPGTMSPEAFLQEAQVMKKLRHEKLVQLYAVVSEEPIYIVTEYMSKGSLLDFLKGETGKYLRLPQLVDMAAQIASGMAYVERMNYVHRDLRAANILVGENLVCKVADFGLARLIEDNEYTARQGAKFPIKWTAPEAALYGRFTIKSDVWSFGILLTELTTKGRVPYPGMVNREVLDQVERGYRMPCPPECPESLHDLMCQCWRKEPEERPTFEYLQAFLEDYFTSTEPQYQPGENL
Protocol: as §3
Compounds are serially diluted in DMSO and 1 μL of test compound at 25× final concentration is used. The vehicle control receives DMSO only. Test compounds are pre-incubated with 10 μL of water containing 5.3 units of Src^p60 enzyme (Upstate, Charlottesville, Va.) at room temperature for 15 minutes. […] The reactions are incubated for 1 hr at room temperature. Time resolved fluorescence is read at 665 and 615 nm using the Victor V program LANCE 615/665 on a Victor^2 V plate reader (Perkin Elmer Life Sciences).

Structure (SMILES)	IC50 (p38α) [nM]	IC50 (JNK2α2) [nM]	IC50 (p38γ) [nM]	IC50 (Src^p60) [nM]
CS(=O)(=O)N1CCC(Nc2nccc(-c3c(-c4ccc(F)cc4)nc4occn34)n2)CC1 [CCLXXIX]	0.71	23.3	> 100000	> 64000
CC(=O)N1CCC(Nc2nccc(-c3c(-c4ccc(F)cc4)nc4occn34)n2)CC1 [CCLXXVIII]	2.38			
CN1[C@@H]2CC[C@H]1C[C@@H](Nc1nccc(-c3c(-c4ccc(F)cc4)nc4occn34)n1)C2 [CCLXXXI]	4.91	762	> 100000	> 9030
Fc1ccc(-c2nc3occn3c2-c2ccnc(NC3CCNCC3)n2)cc1 [CCLXXX]	13.1			
CN(C)CC(C)(C)CNc1nccc(-c2c(-c3ccc(F)cc3)nc3occn23)n1 [CXIX]	17			
Fc1ccc(-c2nc3occn3c2-c2ccnc(N[C@@H]3CN4CCC3CC4)n2)cc1 [LXXI]	27.7	1590	> 519000	12900
Fc1ccc(-c2nc3occn3c2-c2ccnc(NC3CN4CCC3CC4)n2)cc1 (centres unmarked) [LXXXIV]	15	2260	> 81300	> 29500
Fc1ccc(-c2nc3occn3c2-c2ccnc(N[C@H]3CN4CCC3CC4)n2)cc1 [LXXXVII]	8.7	1040	59500	25900
